US10046060B2, “Co-administration of an agent linked to an internalization peptide with an anti-inflammatory” (NoNO Inc., priority 2007, dated 2018)
Read-outs that look alike come from different tables or passages of the source. Square brackets hold non-standard residues; d marks the D form. Ends that are not written are not given here.

Key:
[1] = Table 1 comment; cited from earlier work
rats = test: Mean arterial pressure (MAP) in rats after Tat peptides with or without anti-inflammatory agents
Sprague Dawley rats = test: MAP in rats: lodoxamide co-formulation or cromolyn infusion with Tat-NR2B9c; format: in vivo, rat; conditions: for Effect on drop in MAP resulting from Tat-NR2B9c: cromolyn infused for three minutes immediately before Tat-NR2B9c, FIG. 13B
Procedure: Animals (male, Sprague Dawley) were allowed to eat and drink before surgery. Animals were put to sleep in a chamber with 2% isoflurane and 1 L oxygen. Once asleep, rat was transferred to a face mask at 1% isoflurane and a gas of 1 L oxygen. PE50 tubing was used for connection of the femoral artery and vein. These arteries and veins provide access for continual monitoring of arterial pressure and for drug infusion (50 mg per kg in a volume of 2 ml per kg injected with in 2 minutes). Surgeries were done on the left side. Animal's blood pressure and body temperature was monitored for 90 minutes.

[2] = tested on: animal model of infarction; conditions: cited from earlier work
Beagle dogs = test: Antihistamine pre-treatment before Tat-NR2B9c in dogs; conditions: benadryl 1 mg/kg 30 minutes before 12.5 mg/kg Tat-NR2B9c; female dog
mast cells = test: Mast cell degranulation assay (tryptase activity); format: cell-based, mouse; parameters: Mast cell degranulation (relative tryptase activity): dose or concentration left out as unconfirmed; conditions: for Dose dependence of mast cell degranulation: increasing concentrations, FIG. 3
rat 3PVO model of stroke = test: Rat 3PVO model of stroke, lodoxamide co-formulation; format: in vivo; conditions: FIG. 15
Procedure: Methods for Three pial vessel occlusion model of ischemia (3PVO): Experiments were performed on fasted rats (free overnight access to water but not food). […] In brief, rats were anesthetized with a 0.5 ml/kg intramuscular injection of ketamine (100 mg/kg), acepromazine (2 mg/kg), and xylazine (5 mg/kg), supplemented with one-third of the initial dose as required. A rectal temperature was monitored and the animal body temperature was maintained at 37° C. by using a heating pad. The skull was exposed via a midline incision and scraped free of tissue. Using a dissecting microscope and a pneumatic dental drill, a 6- to 8-mm rectangular cranial window was made over the right somatosensory cortex (2 mm caudal and 5 mm lateral to bregma) and the loose piece of skull was removed while keeping the dura intact. The 3 pial arteriolar middle cerebral artery branches were electrically cauterized around the barrel cortex area. Incision was sutured with 3.0 silk sutures. Animals were returned to individual cages under a heating lamp to maintain body temperature until the rats fully recovered. Food and water was supplied. One hour after 3PVO ischemia the rats were injected with 3 μM/kg Tat-NR2B9c or Rv-Tat-NR2B9c intravenously through tail vein. […] Images were scanned (CanoScan, 4200F, Canon). Infarct percentage was calculated per slice using Image J software (NIH). […]

[3] = tested on: Sprague Dawley rats, P3VO model of stroke; test: Pial 3 vessel occlusion (P3VO) model of stroke, infarct size; format: in vivo, rat; conditions: 3 nM/g i.v. 1 h after stroke, vs saline
PSD95 / NMDAR 2B = PSD95 / NMDAR 2B (Homo sapiens, UniProt P78352); conditions: reported by Bach; cited from earlier work
Sequence of PSD95 / NMDAR 2B (P78352 whole entry): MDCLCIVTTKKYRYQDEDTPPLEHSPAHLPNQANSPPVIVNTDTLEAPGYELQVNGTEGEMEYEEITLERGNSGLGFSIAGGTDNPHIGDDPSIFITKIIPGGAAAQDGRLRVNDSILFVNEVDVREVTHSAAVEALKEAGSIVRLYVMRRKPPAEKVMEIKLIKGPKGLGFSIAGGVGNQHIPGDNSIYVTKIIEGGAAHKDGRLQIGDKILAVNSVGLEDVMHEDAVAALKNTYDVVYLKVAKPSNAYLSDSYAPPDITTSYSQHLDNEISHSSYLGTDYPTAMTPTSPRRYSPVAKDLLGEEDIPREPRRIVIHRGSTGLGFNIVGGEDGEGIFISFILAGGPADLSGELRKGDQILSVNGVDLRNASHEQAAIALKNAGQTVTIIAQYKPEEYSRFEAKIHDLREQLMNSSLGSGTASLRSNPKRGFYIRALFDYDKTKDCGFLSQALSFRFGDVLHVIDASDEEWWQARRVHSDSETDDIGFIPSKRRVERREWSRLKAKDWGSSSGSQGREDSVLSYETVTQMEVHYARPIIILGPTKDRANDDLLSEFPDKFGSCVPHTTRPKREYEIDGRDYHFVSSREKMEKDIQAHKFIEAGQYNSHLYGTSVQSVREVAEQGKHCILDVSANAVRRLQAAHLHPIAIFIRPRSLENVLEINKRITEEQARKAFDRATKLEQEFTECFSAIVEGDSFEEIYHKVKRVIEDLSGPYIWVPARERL

cerebral ischemia = conditions: reported in WO 2008/014917; cited from earlier work

**Q.** Which BBB crossing [1] does the source give for `NCCc1ccc(O)c(O)c1` [Dopamine] here?
**A.** Cannot cross

**Q.** For `N[C@@H](Cc1ccc(O)c(O)c1)C(=O)O` [Levodopa], which halflife [1] is on record?
**A.** halflife = 1.5 hrs

**Q.** Which BBB crossing [1] does the source give for `NC(=O)CN1CCCC1=O` [Piracetam] here?
**A.** Cannot cross

**Q.** With `CNC(=C[N+](=O)[O-])NCCSCc1ccc(CN(C)C)o1` [Ranitidine] as the compound, how does the “Effect of the agent itself on MAP” value (rats; Ranitidine only) read?
**A.** no effect on MAP itself

**Q.** Which halflife [1] does the source give for `CN[C@H](CC(C)C)C(=O)N[C@H]1C(=O)N[C@@H](CC(N)=O)C(=O)N[C@H]2C(=O)N[C@H]3C(=O)N[C@H](C(=O)N[C@H](C(=O)O)c4cc(O)cc(O)c4-c4cc3ccc4O)[C@H](O)c3ccc(c(Cl)c3)Oc3cc2cc(c3O[C@@H]2O[C@H](CO)[C@@H](O)[C@H](O)[C@H]2O[C@H]2C[C@](C)(N)[C@H](O)[C@H](C)O2)Oc2ccc(cc2Cl)[C@H]1O` [Vacomycin] here?
**A.** uptake, 4-6 hr

**Q.** For `O=C(O)c1cc(=O)c2c(OCC(O)COc3cccc4oc(C(=O)O)cc(=O)c34)cccc2o1` [cromolyn, 5,5′-(2-hydroxypropane-1,3-diyl)bis(oxy)bis(4-oxo-4H-chromene-2-carboxylic acid)], which “Effect on decline of MAP due to Rv-Tat-NR2B9c” value (rats; cromolyn before Rv-Tat-NR2B9c, FIGS. 8E and F) is on record?
**A.** significantly inhibited decline of MAP values

**Q.** What about the “Effect on MAP in the absence of Tat-NR2B9c” value (rats; cromolyn plus saline control) of the same compound?
**A.** did not itself affect MAP

**Q.** What about the “Effect on drop in MAP resulting from Tat-NR2B9c” value (Sprague Dawley rats) of the same compound?
**A.** completely abrogate a drop in MAP

**Q.** What about the “Effect on drop in MAP resulting from Tat-NR2B9c” value (Sprague Dawley rats; listed as Cromolyn) of the same compound?
**A.** completely abrogated the drop in MAP

**Q.** And the “Direct activity in inhibiting infarctions” value ([2]; administered i.c.v.)?
**A.** has direct activity in inhibiting infarctions

**Q.** And the “Direct activity in inhibiting infarctions” value ([2]; administered intravenously)?
**A.** not intravenously

**Q.** For `CN(C)CCOC(c1ccccc1)c1ccccc1` [diphenhydramine], which “Effect of the agent itself on blood pressure” value (rats; diphenhydramine 1 mg/kg) is on record?
**A.** did not itself reduce blood pressure

**Q.** What about the “Effect on decline of blood pressure due to Tat-NR2B9c” value (rats; diphenhydramine 1 mg/kg) of the same compound?
**A.** not observed to have a significant effect

**Q.** And the “Effect of the agent itself on blood pressure before Tat-NR2B9c” value (rats; diphenhydramine 12.5 mg/kg)?
**A.** caused a sharp reduction in blood pressure

**Q.** What about the “Effect on decline in blood pressure due to Tat-NR2B9c” value (rats; diphenhydramine 12.5 mg/kg, FIGS. 9A-D) of the same compound?
**A.** significantly inhibited decline in blood pressure

**Q.** And the Reaction after pre-treatment (Beagle dogs)?
**A.** no reaction

**Q.** With `N#Cc1cc(NC(=O)C(=O)O)c(Cl)c(NC(=O)C(=O)O)c1` [lodoxamide, 2-[2-chloro-5-cyano-3-(oxaloamino)anilino]-2-oxoacetic acid] as the compound, how does the “Effect on drop in MAP resulting from Tat-NR2B9c injection” value (Sprague Dawley rats; 6 mg/kg lodoxamide co-formulated with Tat-NR2B9c (3 mg/kg, 3 mM/kg elsewhere in the source), 2 minute infusion, FIG. 13A) read?
**A.** completely abrogate the drop in MAP

**Q.** Which “Reduction of maximal decline in blood pressure due to Tat-NR2B9c” value (rats; pyrilamine, FIGS. 10A-D) does the source give for `COc1ccc(CN(CCN(C)C)c2ccccn2)cc1` [pyrilamine] here?
**A.** did not achieve statistical significance

**Q.** Which “Dose dependence of mast cell degranulation” value (mast cells) does the source give for H-YGRKKRRQRRRKLSSIESDV-OH [Tat-NR2B9c] here?
**A.** dose dependent

**Q.** And the “Infarction size relative to vehicle control” value (rat 3PVO model of stroke)?
**A.** significantly inhibited infarction size

**Q.** And the “Infarct size 24 hours after P3VO surgery” value ([3]; female rats)?
**A.** complete lack of infarct

**Q.** What about the “Infarct size 24 hours after P3VO surgery” value ([3]; male rats) of the same compound?
**A.** significantly decreased infarct size

**Q.** For “IESDV (synthetic pentamer peptide from the C-terminus of NMDAR 2B)”, which “Inhibition of binding of NMDAR 2B to PSD95” value (PSD95 / NMDAR 2B) is on record?
**A.** effective in inhibiting binding of NMDAR 2B to PSD95

**Q.** For “KLSSIESDV (Synthetic pharmacologic agent) [NR2B9c]”, which “Mast cell degranulation (relative tryptase activity)” value (mast cells; FIG. 2) is on record?
**A.** did not

**Q.** And the “Mast cell degranulation, Tat sequence variants” value (mast cells; all at 50 μM, Table 5 prints 125 mg/ml, FIG. 4)?
**A.** did not elicit this reaction

**Q.** Which “Dose dependence of mast cell degranulation” value (mast cells) does the source give for “YGRKKRRQRRRKLSSIEADA (Synthetic Tat-NR2B9c peptide with 2 point mutations in the PSD-95 binding domain) [AA]” here?
**A.** dose dependent

**Q.** For “vdseisslk-rrrqrrkkrgyin ([dV][dD][dS][dE][dI][dS][dS][dL][dK][dR][dR][dR][dQ][dR][dR][dK][dK][dR]G[dY][dI][dN]; also: retro-inverso)”, which “Inhibition of cerebral ischemia” value (cerebral ischemia) is on record?
**A.** effective in inhibiting cerebral ischemia
